From patent US11084823B2, “Substituted pyrrolo[2,1-f][1,2,4]triazines as kinase inhibitors” (Daewoong Pharmaceutical Co., Ltd., priority 2017, dated 2021)

How the values were obtained:
[1] = biological target: Recombinant purified human JAK3 (Homo sapiens (Human), UniProt P52333); assay: JAK3 kinase inhibitory activity, ADP-Glo kinase assay kit (Promega V9441); type: biochemical; details: ATP 5 uM, 4 ng JAK3 per reaction, 1 hour at 30° C., chemiluminescence
Protocol: (§1) JAK3 and BTK kinase inhibitory activities were measured for the compounds prepared in the above Examples through in vitro analysis on the ADP Glow (Glo) platform.
(§2) Specifically, the inhibitory activities of JAK3 and BTK kinase were measured using a JAK3 kinase assay kit (Promega, V9441) and a BTK kinase assay kit (Promega, V9071) which were purchased from Promega. Recombinant purified human JAK3 and BTK were diluted with 1× kinase reaction buffer (JAK3: 40 mM Tris-Cl, pH 7.5, 20 mM MgCl2, 0.1 mg/mL BSA and 50 uM DTT/BTK: 40 mM Tris-Cl, pH 7.5, 20 mM MgCl2, 0.1 mg/mL BSA, 2 mM MnCl2 and 50 uM DTT) and added to a 96 well plate (JAK3: final concentration of 4 ng per reaction/BTK: final concentration of 8 ng per reaction). […] After incubation (30° C.) for 1 hour, equivalent volume (25 uL per reaction) of ADP Glo was added and incubated (30° C.) for 40 minutes at room temperature. Then, a kinase detection reagent (50 uL per reaction) was added and incubated (30° C.) for 30 minutes at room temperature. The kinase activity was measured by chemiluminescence according to the instructions of ADP Glo kinase assay kit, and the inhibitory activity of the compounds according to the present invention was calculated.

[2] = biological target: Recombinant purified human BTK (Homo sapiens (Human), UniProt Q06187); assay: BTK kinase inhibitory activity, ADP-Glo kinase assay kit (Promega V9071); type: biochemical; details: ATP 10 uM, 8 ng BTK per reaction, 1 hour at 30° C., chemiluminescence
Protocol: as §1, §2

Recombinant purified human BTK, sequence (Q06187 whole entry): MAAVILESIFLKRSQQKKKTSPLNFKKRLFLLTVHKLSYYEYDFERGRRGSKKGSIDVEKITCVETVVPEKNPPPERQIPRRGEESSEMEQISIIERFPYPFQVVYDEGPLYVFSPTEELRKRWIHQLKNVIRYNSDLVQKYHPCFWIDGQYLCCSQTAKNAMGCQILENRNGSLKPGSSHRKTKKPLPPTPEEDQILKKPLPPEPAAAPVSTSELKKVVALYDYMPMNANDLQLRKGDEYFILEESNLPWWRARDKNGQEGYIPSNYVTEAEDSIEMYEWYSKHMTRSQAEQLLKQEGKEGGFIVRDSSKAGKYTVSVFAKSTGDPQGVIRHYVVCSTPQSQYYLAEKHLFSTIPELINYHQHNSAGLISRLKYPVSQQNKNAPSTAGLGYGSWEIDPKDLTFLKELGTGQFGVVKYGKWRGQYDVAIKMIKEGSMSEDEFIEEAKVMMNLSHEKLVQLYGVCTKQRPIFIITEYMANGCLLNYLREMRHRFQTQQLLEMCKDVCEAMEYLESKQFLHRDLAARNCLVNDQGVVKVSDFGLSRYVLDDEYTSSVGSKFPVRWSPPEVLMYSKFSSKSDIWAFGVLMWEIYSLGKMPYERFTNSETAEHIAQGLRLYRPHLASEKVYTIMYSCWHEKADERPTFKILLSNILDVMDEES
Recombinant purified human JAK3, sequence (P52333 whole entry): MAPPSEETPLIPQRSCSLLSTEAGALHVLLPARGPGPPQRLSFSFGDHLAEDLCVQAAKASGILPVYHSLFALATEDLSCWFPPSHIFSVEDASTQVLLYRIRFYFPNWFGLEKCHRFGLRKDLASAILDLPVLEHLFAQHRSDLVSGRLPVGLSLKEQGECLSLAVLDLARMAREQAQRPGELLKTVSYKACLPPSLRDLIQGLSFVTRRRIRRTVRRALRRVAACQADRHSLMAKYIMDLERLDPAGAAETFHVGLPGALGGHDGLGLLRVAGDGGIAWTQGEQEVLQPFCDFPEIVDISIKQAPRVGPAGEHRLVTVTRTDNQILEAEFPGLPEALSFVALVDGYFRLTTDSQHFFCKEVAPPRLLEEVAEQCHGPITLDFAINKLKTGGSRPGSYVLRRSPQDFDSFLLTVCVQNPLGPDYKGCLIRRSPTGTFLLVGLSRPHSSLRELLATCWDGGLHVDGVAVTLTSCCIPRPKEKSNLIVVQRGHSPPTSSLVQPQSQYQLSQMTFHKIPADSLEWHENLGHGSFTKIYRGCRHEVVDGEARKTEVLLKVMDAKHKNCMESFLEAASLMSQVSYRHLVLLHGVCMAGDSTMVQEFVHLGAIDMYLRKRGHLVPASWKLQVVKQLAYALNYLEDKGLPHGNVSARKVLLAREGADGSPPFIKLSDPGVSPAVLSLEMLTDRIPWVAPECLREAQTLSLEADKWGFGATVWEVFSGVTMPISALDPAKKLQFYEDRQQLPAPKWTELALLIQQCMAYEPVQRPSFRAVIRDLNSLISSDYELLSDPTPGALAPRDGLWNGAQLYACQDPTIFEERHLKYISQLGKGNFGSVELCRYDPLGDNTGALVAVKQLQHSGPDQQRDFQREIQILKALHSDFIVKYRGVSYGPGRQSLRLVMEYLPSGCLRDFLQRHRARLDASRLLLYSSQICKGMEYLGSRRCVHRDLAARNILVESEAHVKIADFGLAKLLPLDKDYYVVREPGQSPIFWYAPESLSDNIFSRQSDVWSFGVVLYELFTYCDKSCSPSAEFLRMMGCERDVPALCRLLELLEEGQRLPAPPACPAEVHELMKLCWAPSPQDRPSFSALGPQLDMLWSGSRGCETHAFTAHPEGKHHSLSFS

| SMILES | IC50 [1] [nM] | IC50 [2] [nM] |
| --- | --- | --- |
| C=CC(=O)Nc1cccc(Oc2nc(Nc3ccc(N4CCOCC4)cc3)nn3cccc23)c1 [Example 22, N-(3-((2-((4-morpholinophenyl)amino)pyrrolo[2,1-f][1,2,4]triazin-4-yl)oxy)phenyl)acrylamide] | 5.3 | 35.4 |
| C=CC(=O)Nc1ccc(F)c(Oc2nc(Nc3cnn(C(F)F)c3)nn3cccc23)c1 [Example 33, N-(3-((2-((1-(difluoromethyl)-1H-pyrazol-4-yl)amino)pyrrolo[2,1-f][1,2,4]triazin-4-yl)oxy)-4-fluorophenyl)acrylamide] | 2.8 | 15.3 |
| C=CC(=O)Nc1ccc(F)c(Oc2nc(Nc3cnn(CCC)c3)nn3cccc23)c1 [Example 32, N-(4-fluoro-3-((2-((1-propyl-1H-pyrazol-4-yl)amino)pyrrolo[2,1-f][1,2,4]triazin-4-yl)oxy)phenyl)acrylamide] | 1.4 | 9.1 |
| C=CC(=O)Nc1ccc(F)c(Oc2nc(Nc3ccsc3)nn3cccc23)c1 [Example 30, N-(4-fluoro-3-((2-((thiophen-3-yl)amino)pyrrolo[2,1-f][1,2,4]triazin-4-yl)oxy)phenyl)acrylamide] | 7.6 | 66.6 |
| C=CC(=O)Nc1ccc(F)c(Oc2nc(Nc3cnn(CCOC)c3)nn3cccc23)c1 [Example 40, N-(4-fluoro-3-((2-((1-(2-methoxyethyl)-1H-pyrazol-4-yl)amino)pyrrolo[2,1-f][1,2,4]triazin-4-yl)oxy)phenyl)acrylamide] | 2.8 | 23 |
| C=CC(=O)Nc1cccc(Oc2nc(Nc3cc(C)ns3)nn3cccc23)c1 [Example 5, N-(3-((2-((3-methylisothiazol-5-yl)amino)pyrrolo[2,1-f][1,2,4]triazin-4-yl)oxy)phenyl)acrylamide] | 0.6 | 8.7 |
| C=CC(=O)Nc1ccc(F)c(Oc2nc(Nc3cnn(C4CCOCC4)c3)nn3cccc23)c1 [Example 34, N-(4-fluoro-3-((2-((1-(tetrahydro-2H-pyran-4-yl)-1H-pyrazol-4-yl)amino)pyrrolo[2,1-f][1,2,4]triazin-4-yl)oxy)phenyl)acrylamide] | 0.5 | 2.4 |
| C=CC(=O)Nc1cc(Oc2nc(Nc3cnn(CC(F)F)c3)nn3cccc23)ccc1C [Example 48, N-(5-((2-((1-(2,2-difluoroethyl)-1H-pyrazol-4-yl)amino)pyrrolo[2,1-f][1,2,4]triazin-4-yl)oxy)-2-methylphenyl)acrylamide] | 13.8 | 73.4 |
| C=CC(=O)Nc1ccc(F)c(Oc2nc(Nc3cnn(CC(F)F)c3)nn3cccc23)c1 [Example 26, N-(3-((2-((1-(2,2-difluoroethyl)-1H-pyrazol-4-yl)amino)pyrrolo[2,1-f][1,2,4]triazin-4-yl)oxy)-4-fluorophenyl)acrylamide] | 0.9 | 6.2 |
| C=CC(=O)Nc1ccc(F)c(Oc2nc(Nc3cccnc3)nn3cccc23)c1 [Example 15, N-(4-fluoro-3-((2-((pyridin-3-yl)amino)pyrrolo[2,1-f][1,2,4]triazin-4-yl)oxy)phenyl)acrylamide] | 15.5 | 104 |
| C=CC(=O)Nc1cccc(Oc2nc(Nc3ccc(C(C)C)cc3)nn3cccc23)c1 [Example 16, N-(3-((2-((4-isopropylphenyl)amino)pyrrolo[2,1-f][1,2,4]triazin-4-yl)oxy)phenyl)acrylamide] | 20 | 123 |
| C=CC(=O)Nc1cccc(Oc2nc(Nc3cnn(CC)c3)nn3cccc23)c1 [Example 6, N-(3-((2-((1-ethyl-1H-pyrazol-4-yl)amino)pyrrolo[2,1-f][1,2,4]triazin-4-yl)oxy)phenyl)acrylamide] | 0.5 | 10 |
| C=CC(=O)Nc1ccc(Cl)c(Oc2nc(Nc3cnn(CC)c3)nn3cccc23)c1 [Example 46, N-(4-chloro-3-((2-((1-ethyl-1H-pyrazol-4-yl)amino)pyrrolo[2,1-f][1,2,4]triazin-4-yl)oxy)phenyl)acrylamide] | 56.8 | 269 |
| C=CC(=O)Nc1cccc(Oc2nc(Nc3cnn(C4CC4)c3)nn3cccc23)c1 [Example 11, N-(3-((2-((1-cyclopropyl-1H-pyrazol-4-yl)amino)pyrrolo[2,1-f][1,2,4]triazin-4-yl)oxy)phenyl)acrylamide] | 10.3 | 107 |
| C=CC(=O)Nc1ccc(F)c(Oc2nc(Nc3cnoc3)nn3cccc23)c1 [Example 45, N-(4-fluoro-3-(2-(isoxazol-4-ylamino)pyrrolo[2,1-f][1,2,4]triazin-4-yloxy)phenyl)acrylamide] | 32 | 206 |
| C=CC(=O)Nc1ccc(F)c(Oc2nc(Nc3cnn(CC)c3)nn3cccc23)c1 [Example 8, N-(3-((2-((1-ethyl-1H-pyrazol-4-yl)amino)pyrrolo[2,1-f][1,2,4]triazin-4-yl)oxy)-4-fluorophenyl)acrylamide] | 0.6 | 7.7 |
| C=CC(=O)Nc1cccc(Oc2nc(Nc3ccc(N(C)C)cc3)nn3cccc23)c1 [Example 23, N-(3-((2-((4-(dimethylamino)phenyl)amino)pyrrolo[2,1-f][1,2,4]triazin-4-yl)oxy)phenyl)acrylamide] | 10.4 | 60.2 |
| C=CC(=O)Nc1cccc(Oc2nc(Nc3cnn(C)c3)nn3cccc23)c1 [Example 3, N-(3-((2-((1-methyl-1H-pyrazol-4-yl)amino)pyrrolo[2,1-f][1,2,4]triazin-4-yl)oxy)phenyl)acrylamide] | 0.6 | 12.7 |
| C=CC(=O)Nc1cccc(Oc2nc(Nc3cnn(CC(F)F)c3)nn3cccc23)c1 [Example 4, N-(3-((2-((1-(2,2-difluoroethyl)-1H-pyrazol-4-yl)amino)pyrrolo[2,1-f][1,2,4]triazin-4-yl)oxy)phenyl)acrylamide] | 0.7 | 13.4 |
| C=CC(=O)Nc1ccc(F)c(Oc2nc(Nc3cnn(CC(F)(F)F)c3)nn3cccc23)c1 [Example 38, N-(4-fluoro-3-((2-((1-(2,2,2-trifluoroethyl)-1H-pyrazol-4-yl)amino)pyrrolo[2,1-f][1,2,4]triazin-4-yl)oxy)phenyl)acrylamide] | 1.8 | 16.5 |
| CCn1cc(Nc2nc(Oc3cc(NC(=O)/C=C/CCl)ccc3F)c3cccn3n2)cn1 [Example 44, (E)-4-chloro-N-(3-((2-((1-ethyl-1H-pyrazol-4-yl)amino)pyrrolo[2,1-f][1,2,4]triazin-4-yl)oxy)-4-fluorophenyl)but-2-enamide] | 99.5 | 114 |
| C=CC(=O)Nc1ccc(F)c(Oc2nc(Nc3cnn(C)c3)nn3cccc23)c1 [Example 27, N-(4-fluoro-3-((2-((1-methyl-1H-pyrazol-4-yl)amino)pyrrolo[2,1-f][1,2,4]triazin-4-yl)oxy)phenyl)acrylamide] | 0.7 | 5 |
| O=C(CCl)Nc1ccc(F)c(Oc2nc(Nc3cnn(C4CCOCC4)c3)nn3cccc23)c1 [Example 42, 2-chloro-N-(4-fluoro-3-((2-((1-(tetrahydro-2H-pyran-4-yl)-1H-pyrazol-4-yl)amino)pyrrolo[2,1-f][1,2,4]triazin-4-yl)oxy)phenyl)acetamide] | 0.5 | 1.3 |
| C=CC(=O)Nc1cccc(Oc2nc(Nc3cc4n(n3)CCN(C)C4)nn3cccc23)c1 [Example 24, N-(3-((2-((5-methyl-4,5,6,7-tetrahydropyrazolo[1,5-a]pyrazin-2-yl)amino)pyrrolo[2,1-f][1,2,4]triazin-4-yl)oxy)phenyl)acrylamide] | 18.8 | 166 |
| C=CC(=O)Nc1ccc(F)c(Oc2nc(Nc3cnn(C4CC4)c3)nn3cccc23)c1 [Example 1, N-(3-((2-((1-cyclopropyl-1H-pyrazol-4-yl)amino)pyrrolo[2,1-f][1,2,4]triazin-4-yl)oxy)-4-fluorophenyl)acrylamide] | 1.1 | 13.6 |
| C=CC(=O)Nc1ccc(F)c(Oc2nc(Nc3ccc(N4CCOCC4)cc3)nn3cccc23)c1 [Example 31, N-(4-fluoro-3-((2-((4-morpholinophenyl)amino)pyrrolo[2,1-f][1,2,4]triazin-4-yl)oxy)phenyl)acrylamide] | 4.5 | 27.4 |
